Key:
[1] = used in vitro to dye a cell; cited from earlier work
[2] = sensitivity of the VSD according to an external voltage (FIGS. 4A and 4B); details: electrical stimulation=500 mA; compared with Di-4-ANEPPS
Text: VSD according to an external voltage, and FIG. 4B is a diagram showing sensitivity of the VSD of the exemplary embodiment of the present invention according to an external voltage.
Referring to FIGS. 4A and 4B, sensitivities according to a voltage between the conventional VSD (Di-4-ANEPPS) in FIG. 4A and the VSD according to the exemplary embodiment of the present invention (ETRI-Di-8) in FIG. 4B are compared (electrical stimulation=500 mA).

| SMILES | sensitivity to an electric field [1] | voltage sensitivity relative to Di-4-ANEPPS [2] |
| --- | --- | --- |
| CCCCN(CCCC)c1ccc2cc(/C=C/c3cc[n+](CCCS(=O)(=O)[O-])cc3)ccc2c1 [Di-4-ANEPPS] | approximately 10 % per 100 mV | – |
| O=S1(=O)CCCO1 [ETRI-Di-8] | – | three |

From US20110144348A1, “VOLTAGE-SENSITIVE DYE AND METHOD OF PREPARING THE SAME” (Electronics and Telecommunications Research Institute, priority 2009, published 2011)
